{"source": "paper PMC5218480", "about": "(PLoS ONE, 2017)", "test_system": "MV-4-11 cells", "experiment": "Gene expression microarray analysis (Affymetrix PrimeView) and GSEA", "type": "cell-based, human", "set-up": "RFU PODN (11730768_x_at) / Fold change /veh PODN (11730768_x_at) / RFU LINC00158 (11744669_a_at) / Fold change /veh LINC00158 (11744669_a_at) / RFU DUSP10 (11751237_a_at) / Fold change /veh DUSP10 (11751237_a_at) / RFU ID3 (11757404_x_at) / Fold change /veh ID3 (11757404_x_at) / RFU PLEKHG5 (11737974_s_at) / Fold change /veh PLEKHG5 (11737974_s_at) / RFU LRRC4B (11730491_at) / Fold change /veh LRRC4B (11730491_at) / RFU GIMAP4 (11747438_a_at) / Fold change /veh GIMAP4 (11747438_a_at) / RFU KRT8 (11758183_x_at) / Fold change /veh KRT8 (11758183_x_at) / RFU CNN1 (11734310_a_at) / Fold change /veh CNN1 (11734310_a_at) / RFU VPS37D (11726825_at) / Fold change /veh VPS37D (11726825_at) / RFU C10orf10 (11716522_x_at) / Fold change /veh C10orf10 (11716522_x_at) / RFU KIR2DL2 /// KIR2DL4 /// KIR2DL5A /// KIR2DL5B /// KIR2DS1 /// KIR2DS2 /// KIR2DS3 /// KIR2DS4 /// KIR3DL3 /// KIR3DL3 /// KIR3DS1 (11738374_at) / Fold change /veh KIR2DL2 /// KIR2DL4 /// KIR2DL5A /// KIR2DL5B /// KIR2DS1 /// KIR2DS2 /// KIR2DS3 /// KIR2DS4 /// KIR3DL3 /// KIR3DL3 /// KIR3DS1 (11738374_at) / RFU C1QL1 (11718748_at) / Fold change /veh C1QL1 (11718748_at) / RFU TMPRSS4 (11747572_a_at) / Fold change /veh TMPRSS4 (11747572_a_at) / RFU HAMP (11756126_x_at) / Fold change /veh HAMP (11756126_x_at) / RFU RNFT2 (11725882_a_at) / Fold change /veh RNFT2 (11725882_a_at) / RFU NR4A2 (11747474_a_at) / Fold change /veh NR4A2 (11747474_a_at) / RFU ABCC12 (11746883_a_at) / Fold change /veh ABCC12 (11746883_a_at) / RFU TMEM136 (11760407_x_at) / Fold change /veh TMEM136 (11760407_x_at) / RFU CLDN22 /// WWC2 (11732394_at) / Fold change /veh CLDN22 /// WWC2 (11732394_at) / RFU HLA-DPB1 (11760878_x_at) / Fold change /veh HLA-DPB1 (11760878_x_at) / RFU SPINT1 (11716480_a_at) / Fold change /veh SPINT1 (11716480_a_at) / RFU GAP43 (11754022_s_at) / Fold change /veh GAP43 (11754022_s_at) / RFU A4GNT (11735810_at) / Fold change /veh A4GNT (11735810_at) / RFU PRB3 (11715151_x_at) / Fold change /veh PRB3 (11715151_x_at) / RFU TUBB4B (11761932_at) / Fold change /veh TUBB4B (11761932_at) / RFU CAPN14 (11732068_a_at) / Fold change /veh CAPN14 (11732068_a_at) / RFU TMCC2 (11721928_a_at) / Fold change /veh TMCC2 (11721928_a_at) / RFU IRGQ (11745062_a_at) / Fold change /veh IRGQ (11745062_a_at) / RFU FAM174B (11720279_a_at) / Fold change /veh FAM174B (11720279_a_at) / RFU TMPRSS4 (11748680_a_at) / Fold change /veh TMPRSS4 (11748680_a_at) / RFU FAM212B (11763350_a_at) / Fold change /veh FAM212B (11763350_a_at) / RFU PLEKHG5 (11743358_a_at) / Fold change /veh PLEKHG5 (11743358_a_at) / RFU ZSCAN30 (11745921_a_at) / Fold change /veh ZSCAN30 (11745921_a_at) / RFU CMKLR1 (11741424_a_at) / Fold change /veh CMKLR1 (11741424_a_at) / RFU LOC101060620 /// MAPK8IP1 (11723275_at) / Fold change /veh LOC101060620 /// MAPK8IP1 (11723275_at) / RFU SPTSSB (11747773_x_at) / Fold change /veh SPTSSB (11747773_x_at) / RFU PRSS12 (11739890_at) / Fold change /veh PRSS12 (11739890_at) / RFU BIN1 (11741810_x_at) / Fold change /veh BIN1 (11741810_x_at) / RFU WNT11 (11732464_a_at) / Fold change /veh WNT11 (11732464_a_at) / RFU C10orf10 (11716521_a_at) / Fold change /veh C10orf10 (11716521_a_at) / RFU C5orf56 (11738089_at) / Fold change /veh C5orf56 (11738089_at) / RFU CYB561 (11721691_x_at) / Fold change /veh CYB561 (11721691_x_at) / RFU ANKRD19P (11752326_a_at) / Fold change /veh ANKRD19P (11752326_a_at) / RFU OR2T12 /// OR2T33 /// OR2T8 (11738714_s_at) / Fold change /veh OR2T12 /// OR2T33 /// OR2T8 (11738714_s_at) / RFU VCAN (11748164_a_at) / Fold change /veh VCAN (11748164_a_at) / RFU JSRP1 (11732532_at) / Fold change /veh JSRP1 (11732532_at) / RFU KRTAP10-11 (11738290_x_at) / Fold change /veh KRTAP10-11 (11738290_x_at) / RFU MYO3A (11730013_a_at) / Fold change /veh MYO3A (11730013_a_at) / RFU EBF3 (11725865_a_at) / Fold change /veh EBF3 (11725865_a_at) / RFU CAMK2N1 (11719241_x_at) / Fold change /veh CAMK2N1 (11719241_x_at) / RFU C5orf56 (11738088_a_at) / Fold change /veh C5orf56 (11738088_a_at) / RFU OLFML3 (11715873_a_at) / Fold change /veh OLFML3 (11715873_a_at) / RFU LOC100653217 /// NTM (11731650_a_at) / Fold change /veh LOC100653217 /// NTM (11731650_a_at) / RFU MAPK11 (11762145_a_at) / Fold change /veh MAPK11 (11762145_a_at) / RFU FIZ1 (11724087_x_at) / Fold change /veh FIZ1 (11724087_x_at) / RFU OASL (11726364_x_at) / Fold change /veh OASL (11726364_x_at) / RFU SOX15 (11748057_x_at) / Fold change /veh SOX15 (11748057_x_at) / RFU CD79A (11719716_a_at) / Fold change /veh CD79A (11719716_a_at) / RFU HIST1H1D (11736915_at) / Fold change /veh HIST1H1D (11736915_at) / RFU CASKIN2 (11723855_a_at) / Fold change /veh CASKIN2 (11723855_a_at) / RFU LOC730098 (11760151_x_at) / Fold change /veh LOC730098 (11760151_x_at) / RFU OR4N2 (11742367_at) / Fold change /veh OR4N2 (11742367_at) / RFU PRRT2 (11749266_a_at) / Fold change /veh PRRT2 (11749266_a_at) / RFU SNX32 (11753110_a_at) / Fold change /veh SNX32 (11753110_a_at) / RFU CDHR5 (11726645_a_at) / Fold change /veh CDHR5 (11726645_a_at) / RFU RCAN1 (11760418_a_at) / Fold change /veh RCAN1 (11760418_a_at) / RFU FAM167A (11723789_a_at) / Fold change /veh FAM167A (11723789_a_at) / RFU FAM26E (11764081_at) / Fold change /veh FAM26E (11764081_at) / RFU ISYNA1 (11749810_s_at) / Fold change /veh ISYNA1 (11749810_s_at) / RFU ACY1 (11761880_at) / Fold change /veh ACY1 (11761880_at) / RFU 11764098_at / Fold change /veh 11764098_at / RFU SAMD14 (11745864_x_at) / Fold change /veh SAMD14 (11745864_x_at) / RFU NPB (11741838_a_at) / Fold change /veh NPB (11741838_a_at) / RFU TMPRSS6 (11731388_a_at) / Fold change /veh TMPRSS6 (11731388_a_at) / RFU KRTAP10-2 (11738614_at) / Fold change /veh KRTAP10-2 (11738614_at) / RFU ARHGAP8 /// PRR5-ARHGAP8 (11727945_x_at) / Fold change /veh ARHGAP8 /// PRR5-ARHGAP8 (11727945_x_at) / RFU KRTAP5-7 /// NADSYN1 (11734609_at) / Fold change /veh KRTAP5-7 /// NADSYN1 (11734609_at) / RFU RASL12 (11751679_a_at) / Fold change /veh RASL12 (11751679_a_at) / RFU CDKN2B (11736163_a_at) / Fold change /veh CDKN2B (11736163_a_at) / RFU PRF1 (11729649_at) / Fold change /veh PRF1 (11729649_at) / RFU, ZNF638 /// ZNF638-IT1 / Fold change vs veh, ZNF638 /// ZNF638-IT1 / RFU, PANK3 / Fold change vs veh, PANK3 / RFU, SH3YL1 / Fold change vs veh, SH3YL1 / RFU, ZEB2 / Fold change vs veh, ZEB2 / RFU, NRIP1 / Fold change vs veh, NRIP1 / RFU, PTTG1IP / Fold change vs veh, PTTG1IP / RFU, CAPN2 / Fold change vs veh, CAPN2 / RFU, MED14 / Fold change vs veh, MED14 / RFU, SNORA58 / Fold change vs veh, SNORA58 / RFU, C1orf63 / Fold change vs veh, C1orf63 / RFU, LRRFIP1 / Fold change vs veh, LRRFIP1 / RFU, NDUFAF7 / Fold change vs veh, NDUFAF7 / RFU, SLC12A2 / Fold change vs veh, SLC12A2 / RFU, IBTK / Fold change vs veh, IBTK / RFU, ESF1 / Fold change vs veh, ESF1 / Fold change vs veh, TMEM50B / RFU, TAOK1 / Fold change vs veh, TAOK1 / RFU, ACBD3 / Fold change vs veh, ACBD3 / RFU, TMA16 / Fold change vs veh, TMA16 / RFU, RWDD3 / Fold change vs veh, RWDD3 / RFU, BCAT1 / Fold change vs veh, BCAT1 / RFU, EDEM3 / Fold change vs veh, EDEM3 / RFU, TMEM33 / Fold change vs veh, TMEM33 / RFU, WDR75 / Fold change vs veh, WDR75 / RFU, AHCTF1 / Fold change vs veh, AHCTF1 / RFU, TFRC / Fold change vs veh, TFRC / RFU, ZDHHC17 / Fold change vs veh, ZDHHC17 / RFU, NOM1 / Fold change vs veh, NOM1 / RFU, ARL8B / Fold change vs veh, ARL8B / RFU, ZBTB11 / Fold change vs veh, ZBTB11 / RFU, TAMM41 / Fold change vs veh, TAMM41 / RFU, KIAA1704 /// LOC100996395 / Fold change vs veh, KIAA1704 /// LOC100996395 / RFU, ING1 / Fold change vs veh, ING1 / RFU, TRMT61B / Fold change vs veh, TRMT61B / RFU, FUBP3 / Fold change vs veh, FUBP3 / RFU, TP53 / Fold change vs veh, TP53 / RFU, TNKS2 / Fold change vs veh, TNKS2 / RFU, ZFP14 / Fold change vs veh, ZFP14 / RFU, ACTR2 / Fold change vs veh, ACTR2 / RFU, PPP3R1 / Fold change vs veh, PPP3R1 / RFU, PIK3R1 / Fold change vs veh, PIK3R1 / RFU, HNRNPA1 / Fold change vs veh, HNRNPA1 / RFU, RNF170 / Fold change vs veh, RNF170 / RFU, ZNF28 / Fold change vs veh, ZNF28 / RFU, RNGTT / Fold change vs veh, RNGTT / RFU, OGT / Fold change vs veh, OGT / RFU, BRD1 / Fold change vs veh, BRD1 / RFU, MARS / Fold change vs veh, MARS / RFU, ZNF655 / Fold change vs veh, ZNF655 / RFU, FAHD1 / Fold change vs veh, FAHD1 / RFU, BDP1 / Fold change vs veh, BDP1 / RFU, LRRCC1 / Fold change vs veh, LRRCC1 / RFU, ARID1A / Fold change vs veh, ARID1A / RFU, ZNF146 / Fold change vs veh, ZNF146 / RFU, ZNF330 / Fold change vs veh, ZNF330 / RFU, GPN3 / Fold change vs veh, GPN3 / RFU, C9orf123 / Fold change vs veh, C9orf123 / RFU, N4BP2L2 / Fold change vs veh, N4BP2L2 / RFU, ARFIP1 / Fold change vs veh, ARFIP1 / RFU, FAM179B / Fold change vs veh, FAM179B / RFU, BCL10 / Fold change vs veh, BCL10 / RFU, UHRF1BP1L / Fold change vs veh, UHRF1BP1L / RFU, BET1 / Fold change vs veh, BET1 / RFU, CNOT2 / Fold change vs veh, CNOT2 / RFU, ZNF268 / Fold change vs veh, ZNF268 / Fold change vs veh, ZNF507 / RFU, DGCR2 / Fold change vs veh, DGCR2 / RFU, WDSUB1 / Fold change vs veh, WDSUB1 / Fold change vs veh, HSP90B1 /// MIR3652 / RFU, ADSS / Fold change vs veh, ADSS / RFU, GK / Fold change vs veh, GK / RFU, ZNF148 / Fold change vs veh, ZNF148 / RFU, TAF9 / Fold change vs veh, TAF9 / RFU, SLC1A5 / Fold change vs veh, SLC1A5 / RFU, SLMO2 / Fold change vs veh, SLMO2 / RFU, ABCC4 / Fold change vs veh, ABCC4 / RFU, LOC101060439 /// RAP1B / Fold change vs veh, LOC101060439 /// RAP1B / RFU, RFX7 / Fold change vs veh, RFX7 / RFU, GTPBP10 / Fold change vs veh, GTPBP10 / RFU, CNEP1R1 / Fold change vs veh, CNEP1R1 / RFU, BIVM-ERCC5 /// ERCC5 / Fold change vs veh, BIVM-ERCC5 /// ERCC5 / RFU, ILF3 / Fold change vs veh, ILF3 / RFU 11762660_at / Fold change /veh 11762660_at / RFU VCAN (11757783_s_at) / Fold change /veh VCAN (11757783_s_at) / RFU DDX43 (11728927_at) / Fold change /veh DDX43 (11728927_at) / RFU KRT8 (11758188_x_at) / Fold change /veh KRT8 (11758188_x_at) / RFU NKD1 (11759106_at) / Fold change /veh NKD1 (11759106_at) / RFU SRD5A1 (11742802_a_at) / Fold change /veh SRD5A1 (11742802_a_at) / RFU TPSAB1 /// TPSB2 (11721975_s_at) / Fold change /veh TPSAB1 /// TPSB2 (11721975_s_at) / RFU GSTM3 (11746129_a_at) / Fold change /veh GSTM3 (11746129_a_at) / RFU IL23R (11737362_x_at) / Fold change /veh IL23R (11737362_x_at) / RFU TMEM51 (11727254_a_at) / Fold change /veh TMEM51 (11727254_a_at) / RFU PIWIL2 (11732686_x_at) / Fold change /veh PIWIL2 (11732686_x_at) / RFU ORM1 (11744905_x_at) / Fold change /veh ORM1 (11744905_x_at) / RFU CCDC152 (11743942_at) / Fold change /veh CCDC152 (11743942_at) / RFU ECM1 (11717891_a_at) / Fold change /veh ECM1 (11717891_a_at) / RFU IL23R (11748794_a_at) / Fold change /veh IL23R (11748794_a_at) / RFU TNFAIP8L3 (11732012_x_at) / Fold change /veh TNFAIP8L3 (11732012_x_at) / RFU MBOAT4 (11741988_at) / Fold change /veh MBOAT4 (11741988_at) / RFU 11764193_at / Fold change /veh 11764193_at / RFU TMEM53 (11763286_at) / Fold change /veh TMEM53 (11763286_at) / RFU MAGEB2 (11727129_at) / Fold change /veh MAGEB2 (11727129_at) / RFU TMEM200A (11744735_a_at) / Fold change /veh TMEM200A (11744735_a_at) / RFU CCDC152 (11751479_a_at) / Fold change /veh CCDC152 (11751479_a_at) / RFU FAM211A (11726209_a_at) / Fold change /veh FAM211A (11726209_a_at) / RFU RGS16 (11746705_a_at) / Fold change /veh RGS16 (11746705_a_at) / RFU VCAN (11755009_s_at) / Fold change /veh VCAN (11755009_s_at) / RFU RHOB (11743442_s_at) / Fold change /veh RHOB (11743442_s_at) / RFU RGS16 (11720943_a_at) / Fold change /veh RGS16 (11720943_a_at) / RFU RGS16 (11720944_at) / Fold change /veh RGS16 (11720944_at) / RFU, VPS4B / Fold change vs veh, VPS4B / RFU, CREB1 / Fold change vs veh, CREB1 / RFU, DNAJC13 / Fold change vs veh, DNAJC13 / RFU, GNAQ / Fold change vs veh, GNAQ / RFU, CDK5R1 / Fold change vs veh, CDK5R1 / RFU, ZRANB3 / Fold change vs veh, ZRANB3 / RFU, CUL4A / Fold change vs veh, CUL4A / RFU, CCNY / Fold change vs veh, CCNY / RFU, UFL1 / Fold change vs veh, UFL1 / RFU, COG3 / Fold change vs veh, COG3 / RFU, DIAPH2 / Fold change vs veh, DIAPH2 / RFU, SKA2 / Fold change vs veh, SKA2 / RFU, AFF3 / Fold change vs veh, AFF3 / RFU, LMF1 / Fold change vs veh, LMF1 / RFU, IPO11 / Fold change vs veh, IPO11 / RFU, DFFB / Fold change vs veh, DFFB / RFU, FOXP1 / Fold change vs veh, FOXP1 / RFU, CARD8 / Fold change vs veh, CARD8 / RFU, STRN3 / Fold change vs veh, STRN3 / RFU, ADK / Fold change vs veh, ADK / RFU, RASSF2 / Fold change vs veh, RASSF2 / RFU, WIPF1 / Fold change vs veh, WIPF1 / RFU, LARP1B / Fold change vs veh, LARP1B / RFU, RASA1 / Fold change vs veh, RASA1 / RFU, RB1 / Fold change vs veh, RB1 / RFU, PPFIA1 / Fold change vs veh, PPFIA1 / RFU, MAT2A / Fold change vs veh, MAT2A / RFU, CCT5 / Fold change vs veh, CCT5 / RFU, WDR92 / Fold change vs veh, WDR92 / RFU, CUX1 / Fold change vs veh, CUX1 / RFU, TTC7A / Fold change vs veh, TTC7A / RFU, TMEM135 / Fold change vs veh, TMEM135 / RFU, DEPTOR / Fold change vs veh, DEPTOR / RFU, CPM / Fold change vs veh, CPM / RFU, DNAJB6 / Fold change vs veh, DNAJB6 / RFU, CACNA2D3 / Fold change vs veh, CACNA2D3 / RFU, DTX4 / Fold change vs veh, DTX4 / RFU, TFCP2 / Fold change vs veh, TFCP2 / RFU, GMCL1 /// GMCL1P1 / Fold change vs veh, GMCL1 /// GMCL1P1 / RFU, AEBP2 / Fold change vs veh, AEBP2 / RFU, SNHG1 /// SNORD22 /// SNORD25 /// SNORD26 /// SNORD27 /// SNORD28 /// SNORD29 /// SNORD31 / Fold change vs veh, SNHG1 /// SNORD22 /// SNORD25 /// SNORD26 /// SNORD27 /// SNORD28 /// SNORD29 /// SNORD31 / Fold change (Aza/veh), C12orf56 (ProbeSet 11735607_a_at) / Fold change (ACY-1035/veh), C12orf56 (ProbeSet 11735607_a_at) / Fold change (Aza/veh), FGFR1OP (ProbeSet 11751329_s_at) / Fold change (ACY-1035/veh), FGFR1OP (ProbeSet 11751329_s_at) / Fold change (Aza/veh), VPS36 (ProbeSet 11739960_a_at) / Fold change (ACY-1035/veh), VPS36 (ProbeSet 11739960_a_at) / RFU SYPL1 (11715823_x_at) / Fold change /veh SYPL1 (11715823_x_at) / RFU IGFBP7 (11715501_s_at) / Fold change /veh IGFBP7 (11715501_s_at) / RFU REEP3 (11722064_at) / Fold change /veh REEP3 (11722064_at) / RFU IGLL1 (11728026_x_at) / Fold change /veh IGLL1 (11728026_x_at): dose or concentration left out as unconfirmed", "settings": "ProbeSet 11727641_at; LIST B"}
{"smiles": "Nc1ncn([C@@H]2O[C@H](CO)[C@@H](O)[C@H]2O)c(=O)n1", "note": "[azacitidine]", "values": [{"measurement": "RFU, NOM1", "value": 178.62, "unit": "RFU"}]}
